Measurements reported in patent US8974801B2, “Long term sustained release pharmaceutical composition containing aqueous suspension of bisphosphonate” (priority 2006, dated 2015).

Conditions: female, Sprague-Dawley, rat, in vivo

Which “Total Net Bone Absorbed” value does the source give for NCCCC(O)(P(=O)(O)O)P(=O)(O)O [Alendronate Calcium, alendronate calcium] here?
Its value is 770.
